# Laboratory results taken from article PMC9570109, “Improved Trimethylangelicin Analogs for Cystic Fibrosis: Design, Synthesis and Preliminary Screening” (International Journal of Molecular Sciences, 2022).
# What was measured:
# [1] = tested on: Salmonella typhimurium mutant TA97A, TA98, TA100, and TA1535 strains; experiment: Ames test, overall result on all strains; format: cell-based; settings: all concentrations, with and without S9 mix
# Method: To investigate whether changes in the structure of TMA abolish the mutagenic effect observed with this class of compounds, the most promising TMA analogs were evaluated by the Ames test. Compounds 4-PhDMA and pANDMA were tested for genotoxicity evaluation using the histidine-requiring Salmonella typhimurium mutant TA97A, TA98, TA100, and TA1535 strains that allow checking frameshift mutation and base pair substitution, with and without metabolic activation induced by S9 Mix.
# The number of spontaneous revertants is relatively constant, but it dramatically increases—generally in a dose-dependent way—when a mutagen is added to the plate. […]
# The mutagenicity assay was performed for the test compounds following the plate incorporation method with the histidine-requiring Salmonella typhimurium mutant TA97A, TA98, TA100, and TA1535 strains purchased by Molecular Toxicology Inc. (Boone, NC, USA; moltox.com). […] The plates were incubated at 37 °C for 72 h and then his+ revertants were checked and counted using a Colony Counter 560 Suntex (Antibioticos, Italy). […] Statistical analysis: relative standard deviations were calculated using the statistical software STATISTICA 6.0 (StatSoft, Italia srl, Vigonza, Italy).
# [2] = tested on: Salmonella typhimurium 1535; experiment: Ames mutagenicity assay, plate incorporation, TA1535; format: cell-based
# Method: The mutagenicity assay was performed for the test compounds following the plate incorporation method with the histidine-requiring Salmonella typhimurium mutant TA97A, TA98, TA100, and TA1535 strains purchased by Molecular Toxicology Inc. (Boone, NC, USA; moltox.com). All strains (100 µL per plate of fresh overnight cultures) were checked with and without the addition of 0.5 mL of a 5% S9 exogenous metabolic activator (S9 mix). The lyophilized post-mitochondrial supernatant S9 mix (Aroclor 1254-induced, Sprague–Dawley male rat liver in 0.154 M KCl solution), commonly used for the activation of pro-mutagens in mutagenic metabolites (Molecular Toxicology, Inc., Boone, NC, USA), was stored at −80 °C before use. The concentration tested for all the samples were 5, 10, 20, 50, and 100 µL/plate from a stock solution of 500 nM. A fully grown culture of the appropriate tester strain (0.1 mL) was added to 2 mL molten top agar (0.6% agar, 0.6% NaCl, 0.5 mM L-histidine/biotin solution) at 46 °C, together with 0.1 mL of each sample solution at different concentrations, and 0.5 mL S9 mix for assays with metabolic activation. The ingredients were thoroughly mixed and poured onto minimal glucose agar plates (1.5% agar in 2% Vogel–Bonner medium E with 5% glucose solution). DMSO was used as negative a control (100 µL/plate). Positive controls were prepared as follows: 2-aminoanthracene (2 µg/plate) and 2-nitrofluorene (2 µg/plate) for TA 97A, TA98 and TA1535 with and without metabolic activator (S9 mix), respectively; 2-aminoanthracene (2 µg/plate) and sodium azide (2 µg/plate) for TA100, with and without metabolic activator (S9 mix), respectively. The plates were incubated at 37 °C for 72 h and then his+ revertants were checked and counted using a Colony Counter 560 Suntex (Antibioticos, Italy). A sample was considered mutagenic when the observed number of colonies was at least twofold over the spontaneous level of revertants. All determinations were made in triplicate. Statistical analysis: relative standard deviations were calculated using the statistical software STATISTICA 6.0 (StatSoft, Italia srl, Vigonza, Italy). […]
# Salmonella typhimurium TA97A Salmonella typhimurium TA98 Salmonella typhimurium TA100 Salmonella typhimurium 1535 […]
# average SD t/c average SD t/c average SD t/c average SD t/c average SD t/c average SD t/c average SD t/c average SD t/c […]
# *Significant values according to Ames computation (Maron & Ames, 1983); DMSO, C+: negative and positive controls respectively; SD: Standard Deviation; t/c: number of revertant colonies in treated plates/number of revertant colonies in […]
# [3] = 1535, +S9, 5 µL/plate of 500 nM stock
# [4] = 1535, +S9, 10 µL/plate of 500 nM stock
# [5] = 1535, +S9, 20 µL/plate of 500 nM stock
# [6] = 1535, +S9, 50 µL/plate of 500 nM stock
# [7] = 1535, +S9, 100 µL/plate of 500 nM stock
# [8] = 1535, -S9, 5 µL/plate of 500 nM stock
# [9] = 1535, -S9, 10 µL/plate of 500 nM stock
# [10] = 1535, -S9, 20 µL/plate of 500 nM stock
# [11] = 1535, -S9, 50 µL/plate of 500 nM stock
# [12] = 1535, -S9, 100 µL/plate of 500 nM stock
Structure (SMILES),"revertant colonies, average [2, 3]","t/c (revertant colonies treated/untreated plates) [2, 3]","revertant colonies, average [2, 4]","t/c (revertant colonies treated/untreated plates) [2, 4]","revertant colonies, average [2, 5]","t/c (revertant colonies treated/untreated plates) [2, 5]","revertant colonies, average [2, 6]","t/c (revertant colonies treated/untreated plates) [2, 6]","revertant colonies, average [2, 7]","t/c (revertant colonies treated/untreated plates) [2, 7]","revertant colonies, average [2, 8]","t/c (revertant colonies treated/untreated plates) [2, 8]","revertant colonies, average [2, 9]","t/c (revertant colonies treated/untreated plates) [2, 9]","revertant colonies, average [2, 10]","t/c (revertant colonies treated/untreated plates) [2, 10]","revertant colonies, average [2, 11]","t/c (revertant colonies treated/untreated plates) [2, 11]","revertant colonies, average [2, 12]","t/c (revertant colonies treated/untreated plates) [2, 12]",also measured
Cc1cc2c(-c3ccccc3)cc(=O)oc2c2c(C)coc12 [4-PhDMA],10.5,1.0,13.5,1.3,11.0,1.0,10.5,1.0,11.0,1.0,15.0,1.4,13.0,1.2,5.5,0.5,10.0,0.9,7.0,0.6,genotoxic activity (Ames test) [1]: non-genotoxic
Cc1cc(=O)oc2c1cc(-c1ccccc1)c1occ(C)c12 [6-PhDMA],13.5,1.3,12.5,1.2,10.0,0.9,10.0,0.9,14.0,1.3,13.5,1.2,14.5,1.3,7.5,0.7,8.0,0.7,9.0,0.8,
Cc1cc(=O)oc2c1cc(-c1ccc(N)cc1)c1occ(C)c12 [pANDMA],14.5,1.4,17.0,1.6,12.0,1.1,13.0,1.2,14.0,1.3,17.5,1.6,13.0,1.2,5.5,0.5,9.5,0.9,10.0,0.9,genotoxic activity (Ames test) [1]: non-genotoxic
